Measurements: patent US10111889B2, “Uses of ganaxolone” (priority 2014, dated 2018)

Experiments:
WAG/Rij mice = details: administered directly into somatosensory cortex; cited from earlier work
wild-type mice = details: thalamus of wild-type mice; cited from earlier work
[1] = clinical trials; even at very high doses; cited from earlier work
RQ mice = assay: Evaluation of sleep patterns (video and EEG) in RQ mice; type: in vivo, mouse; details: 2 mg/kg i.p. on two consecutive days
Excerpt: RR and RQ mice (n=3 each) were monitored with video and EEG recordings. […] Sleep stages (Wake, NREM and REM) were scored visually from the EEG by an experienced scorer. For statistical analysis, EEG delta power (0.5-4 Hz) was normalized by dividing by the sum of power in the non-delta bands (6-100 Hz).

GABAA receptor = assay: Whole-cell patch clamp, tonic/holding current in somatosensory cortical layer II/III pyramidal cells of brain slices; type: cell-based, mouse; details: 30 μM
Protocol: Horizontal slices (400 μm) were prepared from the brains of C57BL/6J mice RR and RQ mice of either sex (16-26 days old). […] Mice were anesthetized with isoflurane, decapitated, and the brain was removed and placed in ice-cold cutting solution containing (in mM): 125 NaCl, 25 NaHCO3, 2.5 KCl, 1.25 NaH2PO4, 0.5 CaCl2, 3.35 MgCl2, 25 D-Glucose, 13.87 M sucrose, and bubbled with 95% O2 and 5% CO2. Slices were cut using a vibratome (Leica VT 1000S, Global Medical Imaging; Ramsey, Minn.) and placed in an incubation chamber containing standard 2 mM CaCl2, 1 mM MgCl2 artificial cerebrospinal fluid (ACSF) at room temperature for 1 hour before being used for recordings. Whole cell patch-clamp recordings were made from somatosensory cortical layer II/III pyramidal cells or ventrobasal thalamic relay cells, visualized using an upright differential interference contrast microscope (Axioskop FS2, Zeiss; Oberkochen, Germany). […]
Additional segments (30 s) just prior to and 90 s after bicuculline administration were analyzed to quantify inhibitory tonic currents. […] Tonic current was calculated as the difference between the fitted Gaussian means before and after bicuculline administration. Current density (pA/pF) was calculated by dividing the current by cell capacitance.

wild-type (RR) mice = assay: EEG monitoring of SWDs in wild-type (RR) mice after blocking cortical tonic inhibition; type: in vivo, mouse
Excerpt: The present study used wild-type Harlan C57BL/6J-OlaHsd and γ2R43Q knock-in mice bred into a background of C57BL/6J-OlaHsd mice. Behavioral and electrographic markers of absence epilepsy in these animals were confirmed by video-EEG monitoring. In-depth detailing of surgery and electrode implantation are described in the prior art. Briefly, P24 mice were implanted, under isoflurane anesthesia (1%-2% in 100% O2), for chronic EEG recordings with gold plated miniature screw electrodes over the right and left frontal and parietal cortices, and one over the cerebellum as reference. Two vinyl-coated braided stainless steel wire electrodes were placed in the nuchal muscle for electromyogram (EMG) recording of muscle activity. All electrodes were gathered into a flexible cable and connected to the Multichannel Neurophysiology Recording system (Tucker-Davis Technologies, TDT, Alachua, Fla., USA). […] Continuous EEG recordings with occasional video monitoring were made and SWDs were scored off-line. […] Only SWD events that occurred >2 min from slow-wave-sleep periods were used for quantification. SWD event durations were measured from the first synchronized positive peak signal to the last synchronized positive peak within an event. […]
When comparing normally distributed data, two groups were assessed with a t-test and comparisons of three or more were assessed with ANOVA. […]

Question: With CC(=O)[C@H]1CC[C@H]2[C@@H]3CC[C@H]4C[C@H](O)CC[C@]4(C)[C@H]3CC[C@]12C [allopregnanolone] as the molecule, how does the “number of SWDs observed” value (WAG/Rij mice) read?
Answer: Its value is “decreases the number of SWDs”.

Question: For Oc1noc2c1CCNC2 [THIP, 4,5,6,7-tetrahydroisoxazolo[5,4-c]pyridin-3-ol], which “SWDs associated with absence epilepsy” value (wild-type mice) is on record?
Answer: Its value is “produces the SWDs”.

Question: Which results are given for CC(=O)[C@H]1CC[C@H]2[C@@H]3CC[C@H]4C[C@](C)(O)CC[C@]4(C)[C@H]3CC[C@]12C [GANX, 3α-hydroxy-3β-methyl-5α-pregnan-20-one]?
Answer: side effects [1]: relatively modest side effects; briefer Wake durations of RQ mice (RQ mice; RQ mice): not reversed; shorter brief awakenings (<=16 seconds) of RQ mice (RQ mice; RQ mice): not altered; shorter durations of single NREM episodes of RQ mice (RQ mice; RQ mice): reversed by GANX to normal levels; higher normalized delta power of RQ mice (RQ mice; RQ mice, normal sleep time (daylight)): reversed by GANX toward normal levels; durations of REM (RQ mice; RR, RQ, RQ with GANX): No groups differed; number of brief awakenings (RQ mice; RR, RQ, RQ with GANX): did not differ between any groups; number of SWDs observed (WAG/Rij mice): decreases the number of SWDs

Question: With CCOC(=O)c1ncn2c1C1CCCN1C(=O)c1cc(OC)ccc1-2 (stereo not shown) [L655,708, 11,12,13,13a-Tetrahydro-7-methoxy-9-oxo-9H-imidazo[1,5-a]pyrrolo[2,1-c][1,4]benzodiazepine-1-carboxylic acid, ethyl ester] as the molecule, how does the “tonic current in RR somatosensory cortical layer II/III cells” value (GABAA receptor) read?
Answer: The value was “completely blocked”.

Question: What about the “SWD generation in RR mice” value (wild-type (RR) mice; 2 mg/kg i.p.) of the same molecule?
Answer: Its value is “produced SWDs”.

Question: And the “persistence of SWDs after the last injection” value (wild-type (RR) mice; injected twice a day for 2 consecutive days, wild-type mice)?
Answer: Its value is “still displayed SWDs 3 days after the last injection”.
